Source: patent US11891386B2, “Indole compounds and their use” (ARIAGEN, INC., priority 2017, dated 2024)
Where two headings read alike, the source gives them in different places.

Key:
[1] = In vivo pharmacokinetic study in Sprague-Dawley rats; conditions: rat; for bioavailability: Sprague-Dawley, plasma, po, 10 mg/kg; for % of Hepatisc Blood Flow: IV (2 mg/kg)
Procedure: This example describes pharmacokinetic (PK) studies of the various indole compounds described herein in rats, a rodent species widely used for pre-clinical toxicology evaluation. In the present studies, the test compounds were given to groups of Sprague-Dawley rats (N=3 in each group) intravenously (IV) at 2 mg/kg or orally (PO) at 10 mg/kg. IV doses were formulated in DMSO, while PO doses were formulated in a 50/50 mixture of PEG400 and Tween 80. Blood samples were collected at pre-dose and over a period of 24 hours post-dose. Plasma concentrations of the indole compounds were determined by HPLC.

[2] = test system: CYP1A1 in mouse Hepal-6 cells; assay: EROD assay (7-ethoxy-resorufin-O-deethylase), mouse Hepa1-6 cells; assay type: cell-based; conditions: for EC50: EROD assay, 20 hours treatment
Procedure: (§1) CYP1A1 induction is under the control of the AhR signaling pathway. This Example describes an in vitro assay (7-ethoxy-resorufin-O-deethylase (EROD) assay) that evaluated the AhR modulating activities of the indole compounds described herein. In this assay, the indole compounds were incubated with human HepG2 cells or mouse Hepal-6 cells. The activity of CYP1A1 in the cells was measured by the conversion of substrate 7-ethoxyresorufin, with the readout being a fluorescence signal associated with the conversion product. The EC50 values of the indole compounds as well as the maximum […] induced by them in the assay were determined.
(§2) Human HepG2 cells were obtained from Sigma Aldrich (Catalog 85011430-1VL). Mouse Hepal-6 cells also were obtained from Sigma Aldrich (Catalog 92110305-1V).
(§3) Human HepG2 and Mouse Hepal-6 cells were grown to 60-80% confluency in tissue culture flasks, lifted with non-enzymatic cell dissociation solution (cell stripper), seeded in a 384-well plate at 5,000 cells per well, treated with the test compounds, and incubated for 20 hours overnight at 37° C. The treatment medium was removed and a solution of substrate 7-ethoxyresorufin (ETX) was added to initiate the reaction. The plate was incubated at 37° C. for 30 minutes. The reaction was subsequently terminated by adding tempered methanol. Fluorescent emission was measured at 590 nm with excitation at 530 nm in a FLEXSTATION III instrument (Molecular Devices).

[3] = test system: CYP1A1 in human HepG2 cells; assay: EROD assay (7-ethoxy-resorufin-O-deethylase), human HepG2 cells; assay type: cell-based; set-up: key to activity group based on EC50 values, in the order of increasing activity: (1) active; (2) more active; (3) most active; conditions: for activity in the human EROD assay compared to ARI-001 / ARI-002, in words / EC50: human HepG2 cells; for activity group based on EC50 values, in the order of increasing activity: oxadiazole derivatives of ITE; for EC50: EROD assay, 20 hours treatment
Procedure: as §1, §2, §3

[4] = PO (10 mg/kg) vs IV (2 mg/kg), read-out: F % (bioavailability)

## CNC(=O)c1csc(C(=O)c2c[nH]c3ccccc23)n1 [ARI-004]
[1]; [4]
  bioavailability: 33.6%
[1]
  % of Hepatisc Blood Flow: 189%
[2]
  activity in the mouse EROD assay, in words: less active
[3]
  activity in the human EROD assay compared to ARI-001 / ARI-002, in words: less active

## CNC(=O)c1csc(C(=O)c2c[nH]c3ccc(Cl)cc23)n1 [ARI-049, 2-(5-chloro-1H-indole-3-carbonyl)-N-methylthiazole-4-carboxamide]
[2]
  activity in the mouse EROD assay, in words: less active
[3]
  activity in the human EROD assay compared to ARI-001 / ARI-002, in words: less active

## COC(=O)c1csc(C(=O)c2c[nH]c3ccc(Cl)cc23)n1 [ARI-055, methyl 2-(5-chloro-1H-indole-3-carbonyl)thiazole-4-carboxylate]
[2]
  activity in the mouse EROD assay, in words: less active
[3]
  activity in the human EROD assay compared to ARI-001 / ARI-002, in words: less active

## O=C(c1nc(-c2nnco2)cs1)c1c[nH]c2ccccc12 [ARI-056, (4-(1,3,4-oxadiazol-2-yl)thiazol-2-yl)(1H-indol-3-yl)methanone]
[3]; human EROD assay
  activity group based on EC50 values, in the order of increasing activity: active
[3]
  activity in the human EROD assay compared to ARI-001 / ARI-002, in words: significantly more (about 4 to 900 times more) active than ARI-001

## Cc1nnc(-c2csc(C(=O)c3c[nH]c4ccccc34)n2)o1 [ARI-060, (1H-indol-3-yl)(4-(5-methyl-1,3,4-oxadiazol-2-yl)thiazol-2-yl)methanone]
[3]; human EROD assay
  activity group based on EC50 values, in the order of increasing activity: active
[3]
  activity in the human EROD assay compared to ARI-001 / ARI-002, in words: significantly more (about 4 to 900 times more) active than ARI-001

## CNC(=O)c1csc(C(=O)c2c[nH]c3ccc(F)cc23)n1 [ARI-065, 2-(5-fluoro-1H-indole-3-carbonyl)-N-methylthiazole-4-carboxamide]
[2]
  activity in the mouse EROD assay, in words: less active
[3]
  activity in the human EROD assay compared to ARI-001 / ARI-002, in words: less active

## COC(=O)c1csc(C(=O)c2c[nH]c3ccc(F)cc23)n1 [ARI-066, methyl 2-(5-fluoro-1H-indole-3-carbonyl)thiazole-4-carboxylate]
[2]
  activity in the mouse EROD assay, in words: less active
[3]
  activity in the human EROD assay compared to ARI-001 / ARI-002, in words: less active

## CCC(=O)c1csc(C(=O)c2c[nH]c3ccc(Cl)cc23)n1 [ARI-067, 1-(2-(5-chloro-1H-indole-3-carbonyl)thiazol-4-yl)propan-1-one]
[1]; [4]
  bioavailability: 3.5%
[1]
  % of Hepatisc Blood Flow: 350%
[2]
  activity in the mouse EROD assay, in words: less active
[3]
  activity in the human EROD assay compared to ARI-001 / ARI-002, in words: less active

## Nc1nnc(-c2csc(C(=O)c3c[nH]c4ccccc34)n2)s1 [ARI-090, (4-(5-amino-1,3,4-thiadiazol-2-yl)thiazol-2-yl)(1H-indol-3-yl)methanone]
[3]; human EROD assay
  activity group based on EC50 values, in the order of increasing activity: more active
[3]
  activity in the human EROD assay compared to ARI-001 / ARI-002, in words: significantly more (about 4 to 900 times more) active than ARI-001

## Nc1nnc(-c2csc(C(=O)c3c[nH]c4c(F)cccc34)n2)o1 [ARI-118, (4-(5-amino-1,3,4-oxadiazol-2-yl)thiazol-2-yl)(7-fluoro-1H-indol-3-yl)methanone]
[1]; [4]
  bioavailability: 0.2%
[1]; IV
  IV PK profile compared to ARI-001, ARI-002, and ARI-004, in words: improved IV PK profiles
[1]
  % of Hepatisc Blood Flow: 17%
[2]
  activity in the mouse EROD assay, in words: most active among the tested oxadiazole compounds
[3]; human EROD assay
  times more active than ARI-001: about 930 times
  times more active than ARI-002: about 13 times
  activity group based on EC50 values, in the order of increasing activity: most active
[3]
  activity in the human EROD assay compared to ARI-001 / ARI-002, in words: significantly more (about 4 to 900 times more) active than ARI-001

## Nc1nnc(-c2csc(C(=O)c3c[nH]c4cc(Cl)c(Cl)cc34)n2)o1 [ARI-120, (4-(5-amino-1,3,4-oxadiazol-2-yl)thiazol-2-yl)(5,6-dichloro-1H-indol-3-yl)methanone]
[2]
  activity in the mouse EROD assay, in words: most active among the tested oxadiazole compounds
[3]; human EROD assay
  activity group based on EC50 values, in the order of increasing activity: most active
[3]
  activity in the human EROD assay compared to ARI-001 / ARI-002, in words: significantly more (about 4 to 900 times more) active than ARI-001

## CCC(=O)c1csc(C(=O)c2c[nH]c3c(F)cccc23)n1 [ARI-140, 1-(2-(7-fluoro-1H-indole-3-carbonyl)thiazol-4-yl)propan-1-one]
[2]
  activity in the mouse EROD assay, in words: less active than ARI-002
  EC50: 19.5 nM
[3]
  EC50: 0.7 nM

## CCC(=O)c1csc(C(=O)c2c[nH]c3cccc(F)c23)n1 [ARI-142, 1-(2-(4-fluoro-1H-indole-3-carbonyl)thiazol-4-yl)propan-1-one]
[2]
  EC50: 12.8 nM
[3]
  EC50: 64.8 nM
  activity in the human EROD assay compared to ARI-001 / ARI-002, in words: less active than ARI-002

## NCc1nnc(-c2csc(C(=O)c3c[nH]c4c(F)cccc34)n2)o1 [ARI-145, (4-(5-(aminomethyl)-1,3,4-oxadiazol-2-yl)thiazol-2-yl)(7-fluoro-1H-indol-3-yl)methanone]
[2]
  activity in the mouse EROD assay, in words: most active among the tested oxadiazole compounds
[3]; human EROD assay
  activity group based on EC50 values, in the order of increasing activity: more active
[3]
  activity in the human EROD assay compared to ARI-001 / ARI-002, in words: significantly more (about 4 to 900 times more) active than ARI-001

## Nc1nnc(-c2csc(C(=O)c3c[nH]c4ccc(F)cc34)n2)o1 [ARI-148, (4-(5-amino-1,3,4-oxadiazol-2-yl)thiazol-2-yl)(5-fluoro-1H-indol-3-yl)methanone]
[3]; human EROD assay
  activity group based on EC50 values, in the order of increasing activity: more active
[3]
  activity in the human EROD assay compared to ARI-001 / ARI-002, in words: significantly more (about 4 to 900 times more) active than ARI-001

## CCC(=O)c1csc(C(=O)c2c[nH]c3cc(F)c(F)cc23)n1 [ARI-149, 1-(2-(5,6-difluoro-1H-indole-3-carbonyl)thiazol-4-yl)propan-1-one]
[1]; [4]
  bioavailability: 6.8%
[1]; PO, read-out: absolute oral bioavailability, % of ARI-002
  bioavailability: 62%
[1]; IV
  IV AUCinf, times higher than ARI-002: 2.3 times
  plasma clearance, % of that of ARI-002: 50%
[1]
  % of Hepatisc Blood Flow: 13%
[1]; PO
  PO AUCinf, times higher than that of ARI-002: about 1.4 times
[2]
  EC50: 0.6 nM
[3]
  EC50: 19.2 nM
